Experimental data from patent US20250388571A1, “AMP-ACTIVATED PROTEIN KINASE MODULATOR COMPOUNDS AND USES THEREOF” (Biolexis Therapeutics, Inc., priority 2024, published 2025).
Entries after “also recorded” stand apart in the source; their conditions may differ.

How the values were obtained:
[1] = system: human skeletal muscle cells (HSKM cells); experiment: Glucose uptake assay, human skeletal muscle cells; assay type: cell-based; conditions: for glucose uptake: starved, treated 1 hour; for dose dependence of glucose uptake (printed: activation of insulin / AMPK activation): 100 μM to 0.005 μM, 1 hour
Method: FIGS. 1-4 show results for cells treated with differing doses of representative compounds of Structure (I) (i.e., compound I-11 in FIG. 1 and compound I-7 in FIG. 2) as well reference compounds (i.e., PF-06409577 in FIG. 3 and MK-8722 in FIG. 4). […] Cells were starved for 3 hours in high glucose DMEM without FBS, then treated with indicated compounds in DMEM without FBS/glucose for 1 hour, and glucose uptake was detected using an uptake glucose kit (Promega). The bars show (from left to right) concentrations of 100 μM, 33 μM, 11 μM, 3.7 μM, 1.23 μM, 0.41 μM, 0.14 μM, 0.045 μM, 0.015 μM, 0.005 μM, 0 μM, and insulin.
(§1) Human skeletal myoblasts were obtained (Thermofisher; BYU) and cultured in DMEM/F12 medium with 10% FBS. For differentiation, 2% horse serum low glucose DMEM medium was employed for 72 hours. Human cardiomyocytes cells (HCM cells; Promocell) were cultured in myocyte growth medium (Promocell). Human preadipocyte HWP-c cells (Promocell) were obtained from upper arm of diabetic II donor. Human preadipocyte HWP-c cells (Promocell) were obtained from abdomen of diabetic II donor. For differentiating human preadipocytes, cells were cultured in preadipocyte growth medium to total confluency stage. The growth medium was replaced with preadipocyte differentiation medium for 72 hours, then changed to PromoCell adipocyte nutrition medium to complete the differentiation process. THLE-2 cells were cultured in BEGM from Lonza/Clonetics Corporation, Walkersville, MD 21793 (BEGM Bullet Kit; CC3170). HepG2, L6 and C2Cl2 cells were cultured in EMEM medium.
(§2) After differentiation myoblasts, preadipocyte cells were starved by removing the medium and adding 100 μL DMEM without serum. The medium was then replaced with 100 μL DMEM±1 μM insulin at indicated concentration of representative compounds without serum or glucose. The cells were then incubated for 1 hour at 37° C. in 5% CO2. The cells were then removed from the medium and 50 μL of 0.1 mM 2DG in PBS was added. Cells were incubated for 30 minutes at 25° C. 25 μL of Stop Buffer was added and samples were mixed. 25 μL of Neutralization Buffer was then added and mixed. 100 μL of 2DG6P Detection Reagent was then added and mixed. Samples were then incubated for 1 hour at 25° C. Luminescence was then recorded with 0.3-1 second integration on a luminometer.

AMPK (A2/B1/G2) = AMPK (A2/B1/G2) (Homo sapiens, UniProt P54646+Q9UGJ0+Q9Y478); experiment: AMPK kinase binding activity in activation mode (AC50); assay type: biochemical
Excerpt: In Vitro AMPK Kinase Inhibition Experiments

[2] = system: Human white preadipocyte (HWP) cells; experiment: Glucose uptake assay, human white preadipocyte cells; assay type: cell-based; conditions: for glucose uptake: human adipocyte cells / HWP-c cells, donor site not stated
Method: (§3) FIGS. 5-8 show results for glucose update assays in Human white preadipocyte (HWP) cells (Promocell, cat. No. C-12735) when treated with compound I-11 (FIG. 5), compound I-7 (FIG. 6), MK-8722 (FIG. 7), and PF-06409577 (FIG. 8). HWP cells (subcutaneous upper arm of obese patient) were starved for 3 hours in DMEM without FBS, treated with the components noted above in […] DMEM without FBS/glucose for 1 hour, and glucose uptake was detected using a glucose uptake kit (Promega). […] The bars show (from left to right) concentrations of 100 μM, 33 μM, 11 μM, 3.7 μM, 1.23 μM, 0.41 μM, 0.14 μM, 0.045 μM, 0.015 μM, 0.005 μM, 0 μM, and insulin.
as §3, with “9-12” for “5-8”, “9),” for “5),”, “10),” for “6),”, “11),” for “7),”, “12).” for “8).”, “(abdomen cells)” for “(subcutaneous upper arm of obese patient)”
as §1, §2

AMPK (A2/B1/G3) = AMPK (A2/B1/G3) (Homo sapiens, UniProt P54646+Q9UGI9+Q9Y478); experiment: AMPK kinase binding activity in activation mode (AC50); assay type: biochemical
[3] = system: AMPK signal pathway in HSKM cells; experiment: Western blot assay, HSKM cells; assay type: cell-based, human; conditions: some high dosage groups; cell type not given
[4] = system: human cardiomyocyte cells (HCM); experiment: Glucose uptake assay, human cardiomyocyte cells; assay type: cell-based; conditions: for glucose uptake: donor not stated; for AMPK activation activity (glucose uptake assay): 10 doses 100 μM to 0.005 μM
Method: FIGS. 17-19 show results for glucose update assays in human cardiomyocyte cells (“HCM”-healthy donor) (Promocell, cat. no. C-12810) when treated with compound I-11 (FIG. 17), compound I-7 (FIG. 18), and PF-06409577 (FIG. 19). After recovered HCM cells for 4 days, cells were starved for 3 hours in high glucose DMEM without FBS, treated with the components noted above in DMEM without FBS/glucose for 1 hour, and glucose uptake was detected using a glucose uptake kit (Promega). […] The bars show (from left to right) concentrations of 100 μM, 33 μM, 11 μM, 3.7 μM, 1.23 μM, 0.41 μM, 0.14 μM, 0.045 μM, 0.015 μM, 0.005 μM, 0 μM, and insulin.
FIGS. 20-22 show results for glucose update assays in human cardiomyocyte cells (“HCM”-diabetic donor) (Promocell, cat. no. C-12810) when treated with compound I-11 (FIG. 20), compound I-7 (FIG. 21), and PF-06409577 (FIG. 22). After recovered HCM cells for 4 days, cells were starved for 3 hours in high glucose DMEM without FBS, treated with the components noted above in DMEM without FBS/glucose for 1 hour, and glucose uptake was detected using a glucose uptake kit (Promega). […] The bars show (from left to right) concentrations of 100 μM, 33 μM, 11 μM, 3.7 μM, 1.23 μM, 0.41 μM, 0.14 μM, 0.045 μM, 0.015 μM, 0.005 μM, 0 μM, and insulin.
as §1, §2

AMPK (A2/B1/G1) = AMPK (A2/B1/G1) (Homo sapiens, UniProt P54619+P54646+Q9Y478); experiment: AMPK kinase binding activity in activation mode (AC50); assay type: biochemical
[5] = system: human hepatocytes-THLE-2 cells; experiment: Glucose uptake assay, THLE-2 cells; assay type: cell-based
Method: FIGS. 13-16 show results for glucose update assays in THLE-2 cells (ATCC, cat. No. CRL-2706) when treated with compound I-11 (FIG. 13), compound I-7 (FIG. 14), MK-8722 (FIG. 15), and PF-06409577 (FIG. 16). The THLE-2 cells were starved for 3 hours in high glucose DMEM without FBS, treated with the components noted above in DMEM without FBS/glucose for 1 hour, and glucose uptake was detected using a glucose uptake kit (Promega). The bars show (from left to right) concentrations of 100 μM, 33 μM, 11 μM, 3.7 μM, 1.23 μM, 0.41 μM, 0.14 μM, 0.045 μM, 0.015 μM, 0.005 μM, 0 μM, and insulin.
as §1, §2

[6] = system: AMPK signal pathway in human cardiac myocytes (HCM); experiment: Western blot assay, human cardiomyocytes; assay type: cell-based

Sequence of AMPK (A2/B1/G3) (P54646 whole entry): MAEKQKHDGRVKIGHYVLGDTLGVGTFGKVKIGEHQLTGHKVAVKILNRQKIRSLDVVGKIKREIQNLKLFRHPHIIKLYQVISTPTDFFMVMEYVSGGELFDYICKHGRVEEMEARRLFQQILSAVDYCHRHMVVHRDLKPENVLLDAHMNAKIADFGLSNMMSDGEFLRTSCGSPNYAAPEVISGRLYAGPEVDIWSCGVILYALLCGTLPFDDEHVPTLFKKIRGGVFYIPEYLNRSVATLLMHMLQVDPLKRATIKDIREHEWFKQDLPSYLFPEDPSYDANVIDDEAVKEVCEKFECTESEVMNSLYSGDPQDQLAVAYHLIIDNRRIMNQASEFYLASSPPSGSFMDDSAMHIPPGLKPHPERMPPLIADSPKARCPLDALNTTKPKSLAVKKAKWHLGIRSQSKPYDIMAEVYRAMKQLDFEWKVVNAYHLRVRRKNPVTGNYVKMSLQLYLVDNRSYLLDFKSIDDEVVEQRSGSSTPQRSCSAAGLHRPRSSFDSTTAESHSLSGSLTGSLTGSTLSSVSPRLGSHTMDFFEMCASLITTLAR
Sequence of AMPK (A2/B1/G3) (Q9Y478 whole entry): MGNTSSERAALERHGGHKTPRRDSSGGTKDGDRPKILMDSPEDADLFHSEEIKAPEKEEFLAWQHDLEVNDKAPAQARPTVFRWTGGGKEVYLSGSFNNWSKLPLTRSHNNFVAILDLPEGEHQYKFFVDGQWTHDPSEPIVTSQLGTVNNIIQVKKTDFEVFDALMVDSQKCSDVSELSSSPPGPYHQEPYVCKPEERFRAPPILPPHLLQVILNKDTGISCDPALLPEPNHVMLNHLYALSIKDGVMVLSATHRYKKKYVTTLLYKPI
Sequence of AMPK (A2/B1/G3) (Q9UGI9 whole entry): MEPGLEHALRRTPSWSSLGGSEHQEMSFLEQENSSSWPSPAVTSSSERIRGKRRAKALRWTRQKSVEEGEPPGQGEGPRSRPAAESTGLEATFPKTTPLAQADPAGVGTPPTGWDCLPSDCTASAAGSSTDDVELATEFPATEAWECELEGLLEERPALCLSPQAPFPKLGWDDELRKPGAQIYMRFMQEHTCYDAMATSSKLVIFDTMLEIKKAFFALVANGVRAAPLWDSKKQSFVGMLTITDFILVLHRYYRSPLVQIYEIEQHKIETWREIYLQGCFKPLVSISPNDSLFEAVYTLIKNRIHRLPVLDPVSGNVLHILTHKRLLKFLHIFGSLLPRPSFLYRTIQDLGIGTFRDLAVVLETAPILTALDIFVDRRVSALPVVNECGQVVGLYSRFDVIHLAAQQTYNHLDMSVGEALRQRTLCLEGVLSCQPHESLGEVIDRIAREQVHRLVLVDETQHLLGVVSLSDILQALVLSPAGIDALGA
Sequence of AMPK (A2/B1/G1) (P54646 whole entry): as the sequence (P54646 whole entry) above
Sequence of AMPK (A2/B1/G1) (Q9Y478 whole entry): as the sequence (Q9Y478 whole entry) above
Sequence of AMPK (A2/B1/G1) (P54619 whole entry): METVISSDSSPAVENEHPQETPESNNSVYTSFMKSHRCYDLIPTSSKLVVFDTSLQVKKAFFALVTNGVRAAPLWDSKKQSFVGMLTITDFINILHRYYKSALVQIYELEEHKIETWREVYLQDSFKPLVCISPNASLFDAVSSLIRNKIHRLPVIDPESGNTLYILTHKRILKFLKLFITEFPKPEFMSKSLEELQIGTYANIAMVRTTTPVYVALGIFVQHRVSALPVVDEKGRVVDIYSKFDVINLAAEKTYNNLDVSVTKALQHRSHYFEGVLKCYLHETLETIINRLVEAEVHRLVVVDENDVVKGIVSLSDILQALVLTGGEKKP
Sequence of AMPK (A2/B1/G2) (P54646 whole entry): as the sequence (P54646 whole entry) above
Sequence of AMPK (A2/B1/G2) (Q9Y478 whole entry): as the sequence (Q9Y478 whole entry) above
Sequence of AMPK (A2/B1/G2) (Q9UGJ0 whole entry): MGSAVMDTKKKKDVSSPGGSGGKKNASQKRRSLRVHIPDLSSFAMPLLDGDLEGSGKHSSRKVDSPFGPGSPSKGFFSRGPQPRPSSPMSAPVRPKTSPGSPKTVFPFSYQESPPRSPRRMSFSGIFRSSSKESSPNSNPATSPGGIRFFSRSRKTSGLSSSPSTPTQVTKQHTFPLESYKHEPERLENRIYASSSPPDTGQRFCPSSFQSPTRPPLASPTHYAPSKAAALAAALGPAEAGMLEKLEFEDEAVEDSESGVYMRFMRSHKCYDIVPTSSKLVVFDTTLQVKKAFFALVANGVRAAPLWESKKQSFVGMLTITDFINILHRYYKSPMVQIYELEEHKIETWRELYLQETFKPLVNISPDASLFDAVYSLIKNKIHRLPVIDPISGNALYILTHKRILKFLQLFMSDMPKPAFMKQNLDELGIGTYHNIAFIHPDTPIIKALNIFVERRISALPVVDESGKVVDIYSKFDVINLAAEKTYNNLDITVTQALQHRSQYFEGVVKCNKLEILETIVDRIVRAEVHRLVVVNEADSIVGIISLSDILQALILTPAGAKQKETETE

AC50 (AMPK (A2/B1/G2)) [µM] | AC50 (AMPK (A2/B1/G3)) [µM] | AC50 (AMPK (A2/B1/G1)) [µM] | Structure (SMILES) | glucose uptake [1] | glucose uptake [2] | p-AMPK, p-ACC, and p-Raptor expression [3] | glucose uptake [4] | glucose uptake [5] | dose dependence of glucose uptake (printed: activation of insulin / AMPK activation) [1] | dose dependence of glucose uptake (printed: activates insulin) ([2]; HWP cells, abdomen cells, 100 μM to 0.005 μM, 1 hour) | AMPK activation activity (glucose uptake assay) ([4]; diabetic donor) | AMPK activation activity (glucose uptake assay) ([4]; healthy donor) | p-ACC/p-AMPK and AMPKα2β2γ3 expression [6]
≤ 0.01 | ≤ 0.01 | 0.01 to 0.5 | O=c1[nH]c(-c2c[nH]c3cc(Cl)c(-c4ccc(C5(O)CCC5)cc4)cc23)no1 [Compound I-1, 3-(6-chloro-5-(4-(1-hydroxycyclobutyl)phenyl)-1H-indol-3-yl)-1,2,4-oxadiazol-5(4H)-one] | induced glucose uptake; also recorded: increased glucose uptake | induced glucose uptake | could induce | did not induce glucose uptake in dose-dependent manner | induced glucose uptake |  |  |  |  | 
 |  |  | O=c1[nH]c(-c2c[nH]c3cc(F)c(-c4ccc(C5(O)CCC5)cc4)cc23)no1 [Compound I-7, 3-(6-fluoro-5-(4-(1-hydroxycyclobutyl)phenyl)-1H-indol-3-yl)-1,2,4-oxadiazol-5(4H)-one] | induced glucose uptake; also recorded: increased glucose uptake | induced glucose uptake | could induce | did not induce glucose uptake in dose-dependent manner | induced glucose uptake | dose dependence | dose dependent manner | did not show AMPK activation activity | did not show AMPK activation activity | 
0.01 to 0.5 | 0.01 to 0.5 | 0.01 to 0.5 | O=c1[nH]c(-c2c[nH]c3ccc(-c4ccc(C5(O)CCC5)cc4)cc23)no1 [Compound I-10, 3-(5-(4-(1-hydroxycyclobutyl)phenyl)-1H-indol-3-yl)-1,2,4-oxadiazol-5(4H)-one] | induced glucose uptake; also recorded: increased glucose uptake | induced glucose uptake | could induce | did not induce glucose uptake in dose-dependent manner | induced glucose uptake |  |  |  |  | 
0.01 to 0.5 | 0.01 to 0.5 |  | O=c1[nH]c(-c2c[nH]c3cc(F)c(-c4ccc(C5(O)COC5)cc4)cc23)no1 [Compound I-12, 3-(6-fluoro-5-(4-(3-hydroxyoxetan-3-yl)phenyl)-1H-indol-3-yl)-1,2,4-oxadiazol-5(4H)-one] |  |  |  |  |  |  |  |  |  | 
≤ 0.01 | ≤ 0.01 | 0.01 to 0.5 | O=c1[nH]c(-c2c[nH]c3cc(F)c(-c4ccc(C5(O)COC5)cc4)c(F)c23)no1 [Compound I-13, 3-(4,6-difluoro-5-(4-(3-hydroxyoxetan-3-yl)phenyl)-1H-indol-3-yl)-1,2,4-oxadiazol-5(4H)-one] | increased glucose uptake |  |  |  |  |  |  |  |  | 
≤ 0.01 | 0.01 to 0.5 | 0.01 to 0.5 | COc1ncccc1-c1cc2c(-c3noc(=O)[nH]3)c[nH]c2cc1F [Compound I-15, 3-(6-fluoro-5-(2-methoxypyridin-3-yl)-1H-indol-3-yl)-1,2,4-oxadiazol-5(4H)-one] |  |  |  |  |  |  |  |  |  | 
0.5 to 5 | 0.5 to 5 | 5 to 7.5 | COc1ccc(-c2cc3c(-c4noc(=O)[nH]4)c[nH]c3cc2F)cn1 [Compound I-16, 3-(6-fluoro-5-(6-methoxypyridin-3-yl)-1H-indol-3-yl)-1,2,4-oxadiazol-5(4H)-one] |  |  |  |  |  |  |  |  |  | 
0.5 to 5 | 0.5 to 5 | 0.5 to 5 | COc1ccc(-c2c(F)cc3[nH]cc(-c4noc(=O)[nH]4)c3c2F)c(OC)n1 [Compound I-17, 3-(5-(2,6-dimethoxypyridin-3-yl)-4,6-difluoro-1H-indol-3-yl)-1,2,4-oxadiazol-5(4H)-one] |  |  |  |  |  |  |  |  |  | 
 |  |  | O[C@@H]1CO[C@H]2[C@@H]1OC[C@H]2Oc1nc2nc(-c3ccc(-c4ccccc4)cc3)c(Cl)cc2[nH]1 [MK-8722, reference compound] |  |  |  | could increase glucose uptake |  | highly variable |  |  |  | may be able to increase
